We go through two compounds from US11168052B2, “Carbamate derivative compounds, processes for preparing them and their uses” (BIO-PHARM SOLUTIONS CO., LTD., priority 2016, dated 2021).

The test system of assay [1] is ICR mice, tail-flick analgesia meter. Briefly: Tail-flick test. The assay is classed as in vivo. As to conditions: orally, withdrawal latency. How it is done:
To examine the pain relief effect of the carbamate compounds, a tail-flick test was conducted, referring to Current Protocols in Neuroscience; Behavioral Neuroscience Unit 8.9.
ICR mice (male, 25-30g; Orient Bio, Korea) were habituated before test (in test room) for 1 hour. Animals were fasted 2 hr before administration of compounds. Each of Compound was orally administered at the 1-3 dose, 10 ul/g, by bodyweight (n=4-6/group). All compounds were dissolved in a vehicle of 30% (v/v) PEG 400 or 20% (v/v) Tween 80. The control group was treated the vehicle without compounds.
After the administration of compounds, the mice tail were put on a tail-flick analgesia meter. To avoid tissue damage, maximal exposure time to pain stimuli was restricted to 15 s. The withdrawal latency was measured to the time to the point when each mouse responded. The relative values compared to the control (% control) were calculated.
The relative values compared to the sham were calculated and shown in Table 7, which show effect of the compound of examples on tail-flick test in Mice.
A general note: In hot-plate and tail-flick tests a longer latency is read as antinociception.

Assay [2] concerns PTZ (Pentylenetetrazol)-induced clonic seizure in rats. Briefly: Anti-epilepsy activity, scPTZ test in rats. The assay is classed as in vivo, SD rats. The settings on record: Rattus norvegicus, ip. An excerpt: In this experiment, each test compound sample was formulated as described in Biological Experimental Example 1, and administered intraperitoneally to the test animals (mice; ICR or Rat; SD); Experimental animals, male ICR mice and male SD rats, were purchased from OrientBio or Nara biotech, Korea, and housed 4-5 mice per a cage for 4-5 days. The range of mice body weight was used between 19 and 26 grams and range of rats body weight was used between 100 and 130 grams. After Peak time (0.5, 1, 2 and 4 hr) from the administration, PTZ (Pentylenetetrazol) was administered subcutaneously in the concentration capable of inducing 97% intermittent convulsions (mice: 100-110 mg/kg?bw, 10 μl/g, or rats: 90-110 mg/kg?bw, 2 μl/g). If clonic seizure was not observed for at least 30 minutes in the PTZ administered animal, it can be considered that the test compound has anti-epilepsy activity. The median effective dose (ED50) is determined using 6 animals per a concentration (total three different concentrations), and calculated by Litchfield and Wicoxon log-probit method which is a dose-response relationship.

Assay [3] concerns SNL model in rats. Briefly: Antiallodynic activity on Chung model (SNL, spinal nerve ligation), von Frey test. The settings on record: orally. The assay is classed as in vivo, Sprague-Dawley rats. The source says: Male Sprague-Dawley rats (100-130 g, Orient Bio, Korea) were habituated for 1 week before the experiment, and allowed free access to food and water throughout the experimentation. Room temperature and humidity were maintained at 24±2 and 50±10%, respectively. The neuropathic surgery (SNL, Spinal nerve ligation) model was done as described in Kim and Chung (1992). Briefly, an animal was put under gaseous anesthesia with isoflurane. The left lumber spinal nerve L5 and L6 were isolated and tightly ligated with 6-0 silk thread. […]
Tactile sensitivity (Mechanical allodynia) was evaluated using von Frey monofilaments before and after treatment, and animals were included in the study only if the withdrawal threshold value was less than 4 g. […] The tactile sensitivity for the ipsilateral hind paw was measured using the up-and-down method (Dixon, 1980) with seven von Frey monofilaments (0.4, 1, 2, 4, 6, 8, and 15 g) in 3 trials. […] The 50% paw withdrawal threshold for each paw was calculated using the following formula: [Xth]log=[vFr]log+ky where [vFr] is the force of the last von Frey used, k=0.2249 which is the average interval (in log units) between the von Frey monofilaments, and y is a value that depends upon the pattern of withdrawal responses (Dixon, 1980). […]

In assay [4] the test system is Lithium-pilocarpine induced seizure in rats. The assay is described as follows: Lithium-pilocarpine induced epilepsy test (LI-PILO), prevention test. The assay is classed as in vivo, Sprague-Dawley rats. The method, then: Male Sprague-Dawley rats (purchased from Orient Bio Inc. Korea) of body weight 175 grams were used for these studies and 3 rats per cage were housed for 4-5 days. On the day prior to SE, rats received 127 mg/kg lithium chloride (Sigma, St. Louis, Mo., U.S.A.) intraperitoneally (i.p.). Approximately 18-20 h following this treatment, rats were given an i.p. injection of the concentration capable of inducing 97% intermittent convulsions pilocarpine(Sigma, 30-43 mg/kg). An i.p. injection of 2 mg/kg methyl-scopolamine (Sigma) was administered 30 min prior to pilocarpine to block the effects of the muscarinic agonist on peripheral cholinergic receptors. Test drugs were dissolved in 20% tween80 (Sigma).
The drugs were administered intraperitoneally (i.p.) in a volume of 2 μl/g body weight. Pharmacological effects of all of the test materials were evaluated to compare test groups (n=6) with a control group (n=6). Control group was administered vehicle only. The efficacy was measured 0.5, 1, 2, or 4 hours after the administration of the test material. The time point that the most animals were protected was defined as peak time and the ED50 was determined at peak time. The animals were then transferred to observation cages and observed continuously for 90 min Seizure was elicited in approximately 95% of the control group. Protection was defined as complete absence of seizure grade 3-5 (Racine scale; Racine, 1972) over the 90-min observation period. The effective dose of the compound necessary to protect 50% of the animals against seizures compared to controls (i.e., ED50) was determined by a curve fitting program (Excel 2007, Microsoft).

What is called ED50 is the dose at which the effect has come halfway, by size or by number of responders.

Consider `NC(=O)O[C@@H]1c2c(Cl)cccc2CC[C@@H]1O` [Example 19, (1R, 2S)-8-chloro-2-hydroxy-1,2,3,4-tetrahydronaphthalen-1-yl carbamate], for which, in assay [1], the “Tail-flick test Dose” value is given as over 200 mg/kg. In assay [2], this compound registered an ED50 of 50 mg/kg. Moreover, the SNL efficacy % in assay [3] (dose 30 mg/kg) is listed as 30(17.8%). Further, in assay [4] (i.p., dose 50 mg/kg), the “Lithium pilocarpine model (pre) efficacy %” value is on record as 50%.
With `NC(=O)O[C@@H]1CCc2cccc(Cl)c2[C@@H]1O` [Example 1, (1S, 2R)-8-chloro-1-hydroxy-1,2,3,4-tetrahydronaphthalen-2-yl carbamate], in assay [1], the “Tail-flick test Dose” value is given as over 150 mg/kg. The ED50 came to 36.3 mg/kg in assay [2]; 35.5 mg/kg in assay [3] (Rattus norvegicus, po, von Frey threshold relative to sham); 22 mg/kg in assay [4] (Rattus norvegicus, ip, prevention, read-out: Lithium pilocarpine model (pre) ED50).
